Assays:
[1] = biological target: Cyclin-dependent kinase 4/Cyclin D1; assay: Inhibition of CDK4/Cyclin D1 (unknown origin)
[2] = biological target: Neuropilin-1 (Homo sapiens) (UniProt O14786); assay: Inhibition of [125I]-VEGF-A165 binding to NRP1 (unknown origin) transfected in HUVECs incubated for 2 hrs by plate reader analysis
Neuropilin-1 (Homo sapiens), sequence (O14786 whole entry, looked up): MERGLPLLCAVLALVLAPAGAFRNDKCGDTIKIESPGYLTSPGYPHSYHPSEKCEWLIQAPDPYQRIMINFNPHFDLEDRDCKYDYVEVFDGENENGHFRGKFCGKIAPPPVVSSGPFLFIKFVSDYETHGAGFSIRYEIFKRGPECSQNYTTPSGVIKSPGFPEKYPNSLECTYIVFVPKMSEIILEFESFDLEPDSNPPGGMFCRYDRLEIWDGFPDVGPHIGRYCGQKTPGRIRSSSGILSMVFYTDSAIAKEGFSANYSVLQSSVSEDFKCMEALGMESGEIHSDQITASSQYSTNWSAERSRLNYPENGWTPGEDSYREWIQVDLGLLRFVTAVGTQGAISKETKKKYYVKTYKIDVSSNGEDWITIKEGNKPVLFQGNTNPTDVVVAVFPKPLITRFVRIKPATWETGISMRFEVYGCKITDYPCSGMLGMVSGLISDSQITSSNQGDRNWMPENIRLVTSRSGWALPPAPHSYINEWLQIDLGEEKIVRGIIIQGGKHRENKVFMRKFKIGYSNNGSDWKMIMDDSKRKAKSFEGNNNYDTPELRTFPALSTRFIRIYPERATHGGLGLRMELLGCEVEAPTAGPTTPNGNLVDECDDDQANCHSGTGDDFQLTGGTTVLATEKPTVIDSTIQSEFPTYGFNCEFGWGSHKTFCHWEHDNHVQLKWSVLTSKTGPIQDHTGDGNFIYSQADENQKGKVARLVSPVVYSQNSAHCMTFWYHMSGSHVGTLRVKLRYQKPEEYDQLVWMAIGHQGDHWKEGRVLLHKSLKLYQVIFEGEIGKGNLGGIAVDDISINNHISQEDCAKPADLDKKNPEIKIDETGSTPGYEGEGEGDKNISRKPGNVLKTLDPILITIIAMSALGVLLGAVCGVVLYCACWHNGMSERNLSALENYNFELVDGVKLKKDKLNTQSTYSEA

Row | Structure (SMILES) | IC50 [1] [µM] | IC50 [2] [µM]
1 | COc1ccc(/C=C\c2cc(OC)c(OC)c(OC)c2)cc1NC(=O)CCCC(=O)N[C@@H](CCCNC(=N)N)C(=O)O | – | 6.33
2 | COc1ccc(/C=C\c2cc(OC)c(OC)c(OC)c2)cc1NC(=O)CCCCC(=O)N[C@@H](CCCNC(=N)N)C(=O)O | – | 8.94
3 | COc1ccc(/C=C\c2cc(OC)c(OC)c(OC)c2)cc1NC(=O)/C=C/C(=O)N[C@@H](CCCNC(=N)N)C(=O)O | – | 3.91
4 | COc1ccc(/C=C\c2cc(OC)c(OC)c(OC)c2)cc1NC(=O)CCCCCCC(=O)N[C@@H](CCCNC(=N)N)C(=O)O | – | 15

These reach a lower IC50 [2]. Values come first.

Row | IC50 [1] [µM] | IC50 [2] [µM] | Structure (SMILES)
5 | – | 2.91 | NC(N)=NCCC[C@H](NC(=O)c1sccc1NS(=O)(=O)c1cccc2nsnc12)C(=O)O [(S)-2-(3-(benzo[c][1,2,5]thiadiazole-4-sulfonamido)thiophene-2-carboxamido)-5-guanidinopentanoic acid]
6 | > 10 | 0.85 | COc1ccc(/C=C\c2cc(OC)c(OC)c(OC)c2)cc1NC(=O)CCC(=O)N[C@@H](CCCNC(=N)N)C(=O)O
